Measurements from a melting point compilation (Tetko et al.; mined from patent text by program, amines drawn as free bases though some values may be those of a salt).

Row | melting point [°C] | Compound
1 | 160 to 169 | O=C(Nc1ccc(N2CCC(NC[C@H](O)COc3cccc4[nH]c(=O)[nH]c34)CC2)cc1)c1ccc2c(c1)OCO2
2 | 122 to 124 | COc1ncc(C(F)(F)F)cc1-c1cccn2nc(Nc3ccc(C4CCN(CC(=O)N(C)C)CC4)cc3)nc12
3 | 168 | Cc1c(NC(=O)c2ccc(OC[C@@H]3CCCO3)cc2)ccc2cc(CNCC(C)(C)C)[nH]c12
4 | 171 to 172 | COc1ccc(CCOc2nccc(-c3cccc(C(=O)O)c3)n2)cc1OC
5 | 134 to 135 | CCCOc1ccc(S(=O)(=O)N2CCN(CCOC(C)=O)CC2)cc1-c1nc2c(CCCF)cn(CC)c2c(=O)[nH]1
6 | 161 to 163 | CCCCCCOc1cccc(N2CC(=O)NC(=O)N2)c1
7 | 85 to 87 | CCCCNc1nc(C)c(C(=O)OCC)c2c1nnn2CC
8 | 153 to 154 | COC(=O)C=Cc1cc2ccccc2nc1Cl
9 | > 300 | Cc1sc(NC(=O)OC(C)(C)C)c(NC(=O)OC(C)(C)C)c1C#N
10 | 113 to 115 | COC(=O)/C=C/c1ccc(-c2ccc(C)cc2)o1
11 | 61 | ClCCCCCOc1ccccc1OCCCCCCl
12 | 154 to 159 | O=C(O)C[C@H](C(=O)N[C@H](CO)Cc1ccccc1)n1cc(-c2ccc(-c3ccccc3)cc2)cn1
13 | 178 to 181 | CC(C)OC(=O)N1CCC(c2nc3cc(-c4ccc(C(N)=O)c(Cl)c4)ccc3o2)CC1
14 | 80 to 90 | CC(C)c1cccc(C(C)C)c1NC(=O)Nc1nnn(CCCCCCCCCCCCO)n1
15 | 222 to 223 | CC(=O)NC[C@H]1CN(c2ccc(-n3cc(-c4ccc(C)cc4)cn3)c(F)c2)C(=O)O1
16 | 164 to 166 | CCOC(=O)C1Cc2cc(-c3ccc(NC(C)=O)cc3)ccc2O1 (stereo not given)
17 | 108 | Cn1c(Cl)cccc1=O
18 | 189 | CC(SC1COC(C2([N+](=O)[O-])C=CC(C(=O)Nc3ccccc3)=CC2)OC1)C(O)(Cn1cncn1)c1ccc(F)cc1F (stereo not given)
19 | 146 to 149 | CCc1cc(C(=O)c2ccccc2Cl)c(-n2nnnc2CNC(=O)c2cc3ccccc3[nH]2)s1

Row | melting point [°C] | Compound
20 | 78 to 79 | COC(=O)c1oc(C(C)(C)C)cc1NC(=O)Nc1ccc(C)cc1
21 | 221 to 222 | Cc1c(CCO)c(=O)oc2c(O)c(O)ccc12
22 | 220 to 221 | NC(=O)c1ncn2c1CN(C(=O)N1CCOCC1)c1ccccc1-2
23 | 194 to 195 | Nc1cc(C(=O)O)cc(S(N)(=O)=O)c1NCCc1ccccc1
24 | 100 to 104 | Cc1ccc(Cc2cnc(NCCCN(Cc3cccc(Cl)c3)c3ccccn3)[nH]c2=O)cn1
25 | 67 to 68 | CCc1cc(C(=O)c2ccccc2Cl)c(-n2c(C)nnc2CNC(=O)c2cc3ccccc3n2CCC(=O)OC)s1
26 | 113 | CCCCC(=O)c1ccc(NC(C)=O)cc1O
27 | 90 to 91 | Cc1cc(C)cc(NC(=O)Cc2ccc(OC3(C(=O)N[C@@H](C)C(=O)O)CCCC3)cc2)c1
28 | 168 to 169 | COc1cccc(C(=O)C=CC2=CCC(OC)(N(C)C)C=C2)c1OC (stereo not given)
29 | 117 to 124 | CCCCCCCCCCCCCC(O)CNCCCCCCNCC(O)CCCCCCCCCCCCC (stereo not given)
30 | 143 | CCOC(=O)NCC(O)c1cccc2c1CCN2C(=O)c1ccccc1 (stereo not given)
31 | 67 to 68 | CCCCCCCCCCCCC(OC(C)=O)C1=CC(=O)OC1O (stereo not given)
32 | 137 | CCOC(=O)CNC(=O)[C@@H](C)NC(=O)CNC(=O)CSC(=O)c1ccccc1
33 | 86 to 87 | CC(=O)OC1C=C(C)C(=O)CC(C)(C)C1OC(=O)c1ccccc1 (stereo not given)
34 | 56 to 57 | O=C(OCc1ccc(OCCCCCCc2ccc(Cl)cc2)cc1)c1cccnc1
35 | 70 to 72 | CCCCCCCNC(=O)N(C)c1cccc(-c2ccc(C=C(C)C(=O)O)cc2OCCCC)c1
36 | 191 to 194 | CNc1nc(OC)ccc1Nc1nc(Nc2cc3c(cc2OC)CCN(CC(=O)N(C)C)CC3)ncc1Cl
37 | 164 to 165 | CSc1ccc(-c2coc3ccc(-c4nnc([C@H](C)O)o4)cc23)cc1
38 | 71 to 72 | CCCCCCCCCCCCCCCCCCNC(=O)OCC(COC)CN(C(C)=O)S(=O)(=O)CCCI (stereo not given)

Continued, compound first:

Row | Compound | melting point [°C]
39 | COc1ccc(C(=O)c2sc3cc(OC)ccc3c2-c2ccccc2)cc1 | 127 to 128
40 | O=C1C(=Cn2ccnc2)C(c2ccc(Cl)cc2)c2ccc(Cl)cc21 (stereo not given) | 204 to 205
41 | CS(=O)(=O)c1ccc(C(=O)NCc2ccc3c(c2)CN(C2CCC(=O)NC2=O)C3=O)cc1 (stereo not given) | 260 to 262
42 | Cc1cc(C)cc(-c2nc(N)sc2-c2ccncc2)c1 | 242 to 244
43 | CN1CCC(c2cc3cc(C4(O)CCCCC4)ccc3o2)CC1 | 155 to 157
44 | N#Cc1ccc(S)c(C#N)c1 | 180
45 | COc1ccc2cc(CC(N)=O)ccc2c1 | 234 to 236
46 | COc1ccc(CN2C=CC=C3C2=Nc2cc(OC)ccc2S(=O)(=O)N3C)cc1 | 179 to 180
47 | COc1ccc(OCC(O)CN2CCC3(CC2)CNC(=O)O3)cc1 (stereo not given) | 151 to 153
48 | CCOC(=O)N1CCN(C2c3ccccc3C=Cc3ccccc32)CC1 | 159 to 160
49 | Cc1ccc(C)n1-c1ccc2ccc3c([nH]c(=O)c(=O)n3CC(=O)NCc3ccccc3)c2c1 | > 290
50 | CCCc1cc(=O)oc2c(C(C)=O)c(O)cc(O)c12 | 221 to 224
51 | O=c1[nH]c2cc(Cl)c(Cl)cc2n1CCCBr | 198
52 | O=C1OC2(c3ccccc3)CCCN2c2ccccc21 (stereo not given) | 152
53 | COC(C)(C)C(Cl)=NO | 95
54 | Cc1cc2cc([N+](=O)[O-])ccc2o1 | 93 to 95
55 | Cc1c(C2=CCC(c3ccccc3)(N(C)C)CC2)[nH]c2ccc(C#N)cc12 (stereo not given) | 180 to 185
56 | N=C(c1ccccc1)C1CCN1C(c1ccccc1)c1ccccc1 (stereo not given) | 124 to 126
57 | COc1cc(C=CC(=O)c2cc(OC)c(OC)c(OC)c2)cc(C(F)(F)F)c1O | 190 to 192
58 | c1ccc(-c2nc3ccccc3n2-c2ccccc2)cc1 | 105 to 107
59 | CS(=O)(=O)Nc1cc(C(=O)NNC(=O)c2occ(-c3ccccc3)c2-c2ccccc2)ccc1O | 230 to 231

Row | Compound | melting point [°C]
60 | O=S(=O)(c1c(Br)c(Br)n(CCl)c1-c1ccc(Cl)cc1)C(F)(F)F | 153 to 156
61 | COc1ccc(Cn2nc(-c3ccc(OC)cc3)c(-c3ccncc3)cc2=O)cc1 | 143
62 | Nc1ccc2nc(-c3ccc(Cl)cc3)sc2c1 | 166 to 168
63 | CN1Cc2c(C#CCO)ncn2-c2cccc(Cl)c2C1=O | 250 to 252
64 | COC(=O)C=C(C)NCC(O)CO (stereo not given) | 109 to 111
65 | COC(=N[N+](=O)[O-])NCc1cnc(Cl)s1 | 133 to 135
66 | Cc1onc(NS(=O)(=O)c2ccc([N+](=O)[O-])cc2)c1Br | 161 to 163
67 | Clc1ccc(CC(OC2CCCC(Cn3ccnc3)O2)c2ccccc2)c(Cl)c1 (stereo not given) | 118 to 120
68 | COc1cc(CCCCC2OC(=O)NC2=O)ccc1OCc1coc(/C=C/c2ccc3ccccc3c2)n1 (stereo not given) | 169 to 170
69 | CC(=O)Oc1ccc(C=CC(=O)N(c2ccccc2)c2ccccc2)cc1[N+](=O)[O-] | 170 to 172
70 | CCN1CCC(c2cc3ccc(C)cc3c(=O)[nH]2)CC1 | 239 to 241
71 | O=[N+]([O-])c1ccc(OCCN2CC=C(c3ccc(F)cc3)CC2)cc1 | 104 to 107
72 | CC(=O)N(C)C(c1ccc(F)cc1)c1ccc(F)cc1 | 99 to 100
73 | COc1ncccc1-c1[nH]c2ccccc2c1C1CCN(S(=O)(=O)c2ccccc2)CC1 | 231 to 234
74 | Cc1oc(=O)c(Nc2ccc([N+](=O)[O-])cc2)nc1Cl | 230 to 234
75 | Cc1cccc(COc2ccc3c(c2)[C@@H](O)[C@H](Cc2cccnc2)CO3)n1 (relative stereo) | 66 to 68
76 | Cc1cc(Cl)c(Cl)cc1NC(=O)C1(C(=O)O)CC1 | 248 to 251
77 | O=C1c2cc3c(cc2CCC1NC(=O)C(F)(F)F)CCO3 (stereo not given) | 208
78 | Cn1c(=O)c2cccc(N)c2c(=O)c2ccccc21 | 171 to 173
79 | O=[N+]([O-])C=C(NCCSCc1nccs1)NCCSCc1nccs1 | 50 to 51
80 | Cc1cc([N+](=O)[O-])cc(C)c1-c1ccc(-c2c(C)cc([N+](=O)[O-])cc2C)o1 | 156 to 158

Row | Compound | melting point [°C]
81 | COc1cc(OC)c(-c2cc3ccccc3n2C)cc1C=CC(=O)c1ccc(S(=O)(=O)NO)cc1 | > 260
82 | COc1ccc(CN2CCc3cc(OCc4ccccc4)c(OC)cc3C2)cc1 | 96 to 97
83 | COc1ccc(CCl)cc1OCc1nc(-c2ccccc2)oc1C | 129 to 130
84 | COC(=O)c1ccc(C#N)s1 | 76 to 78
85 | CNC(=S)c1ccncc1C1c2ccccc2CC1(C)C (stereo not given) | 187 to 189
86 | O=C1Cc2cc(OCCN3CCC(Cc4ccc(F)cc4)CC3)ccc2N1 | 149 to 150
87 | Cc1cccnc1-n1ccnc1S(=O)Cc1ccccc1N (stereo not given) | 112 to 114
88 | N#Cc1cnn2c(C(F)(F)F)cc(-c3ccc(F)c(Cl)c3)nc12 | 190
89 | NC(=S)Nc1ccc2ccccc2c1 | 190 to 192
90 | Cc1c(CC(=O)O)c2cc3c(cc2n1C(=O)c1ccc(Cl)cc1)OCO3 | 190 to 191
91 | CC12CC(N3CCC4(CC3)OCCO4)C(O)CC1CCC1C2CCC2(C)C(O)C(N3CCC(O)CC3)CC12 (stereo not given) | 253 to 255
92 | C=CCc1c(O)c(C)cc2ccc(=O)oc12 | 161 to 162
93 | CC(C)(C)c1cc(SCCC(=O)O)cc(C(C)(C)C)c1O | 108 to 110
94 | COC(=O)Cc1cc(C(=O)c2ccc3cc(-c4ccccc4)[nH]c3c2)sc1-c1ccccc1 | 183 to 185
95 | COc1ccc2c(c1Cl)CCCC2=O | 130 to 131
96 | CC(O)(c1ccc(OCc2ccc3ccccc3n2)cc1)c1ccc(OCc2ccc3ccccc3n2)cc1 | 129 to 131
97 | COC(=O)CCc1cc(C)on1 | 54 to 55
98 | CCOC(=O)C(Br)=NNc1ccc(F)cc1 | 99 to 100
99 | FC(F)(F)C(/C=C/c1ccc(CNc2ccccn2)c(Cl)c1)c1cc(Cl)c(Cl)c(Cl)c1 (stereo not given) | 140 to 142
100 | NC(=O)c1cccc(-c2ccc(F)c3cc(Cc4cc(F)cc(Cl)c4)sc23)c1 | 168 to 169
